Values after ≈ are worked out from the molar mass of the structure shown.
Key:
[1] = tested on: HIV-2; assay: HIV-2 induced cytopathicity in MT-4 cells; assay type: cell-based, human immunodeficiency virus type 2; conditions: for EC50 HIV-2: MT-4 cells, concentration inhibiting HIV-induced cytopathicity by 50%
Experimental: (§1) The activity of the compounds against HIV-1 and HIV-2 induced cytopathicity was examined in human lymphocyte MT-4 cells. […] The infected cell cultures were then incubated at 37° C. for 5 days in a humidified CO2-controlled incubator. Then, the cytopathicity of the virus was examined by determination of MT-4 cell viability by trypan blue dye staining.

[2] = tested on: Moloney murine sarcoma virus (MSV); assay: MSV infection in newborn NMRI mice, intraperitoneal administration; assay type: in vivo; design: protection of the animals against MSV-induced tumor development: unit not given here; conditions: for antiretroviral activity in vivo (in words): dose of 50 mg/kg i.p.
Experimental: Two gram newborn NMRI mice were injected intramuscularly in the left hind leg with 50 μl of 250-fold diluted stock preparation of Moloney murine sarcoma virus. […] Another group of mice (20 animals) was administered RPMI-1640 medium as placebo. All compounds were solubilized in RPMI-1640 medium. The mice were observed daily for 20 days and the day of tumor initiation and the day of animal death was recorded for each animal. Statistical analyses were performed by calculating the standard deviation.

[3] = tested on: MT-4 cells; assay: MT-4 cell viability (cytotoxicity); assay type: cell-based, human; conditions: for CC50: concentration reducing MT-4 cell viability by 50%
Experimental: The activity of the compounds against HIV-1 and HIV-2 induced cytopathicity was examined in human lymphocyte MT-4 cells. […]. The infected cell cultures were then incubated at 37° C. for 5 days in a humidified CO2-controlled incubator. Then, the cytopathicity of the virus was examined by determination of MT-4 cell viability by trypan blue dye staining. The results are summarized in Table 1 in comparison with the data on the prototype compounds.

[4] = tested on: Moloney murine sarcoma virus (MSV); assay: MSV-induced transformation of C3H/3T3 cells; assay type: cell-based; conditions: concentration inhibiting MSV-induced cell transformation by 50%
Experimental: The cells were seeded in 1-ml-wells of a 48-well microtiter plate and exposed to 80 PFU (plaque forming units) for 60-90 minutes. Then, the virus was removed and culture medium containing appropriate concentrations of the test compounds were added (1 ml per well). At day 6 post infection, MSV-induced transformation of the cell culture was examined microscopically.

[5] = tested on: HIV-1; assay: HIV-1 induced cytopathicity in MT-4 cells; assay type: cell-based, human immunodeficiency virus type 1; conditions: for EC50 HIV-1: MT-4 cells, concentration inhibiting HIV-induced cytopathicity by 50%
Experimental: as §1

[6] = tested on: C3H/3T3 cells; assay: Microscopic alteration of C3H/3T3 cell culture morphology; assay type: cell-based, murine; conditions: concentration that results in a microscopic alteration of C3H/3T3 cell culture morphology
[7] = tested on: retrovirus replication; assay: Anti-retrovirus activity in vitro (conclusions on HIV and MSV tests); assay type: cell-based
[8] = tested on: Moloney murine sarcoma virus (MSV); assay: MSV infection in three-week-old NMRI mice, oral administration; assay type: in vivo; conditions: twice a day, 100 mg/kg (total dose) daily for five days
Experimental: Three-week-old NMRI mice (about 10 grams body weight) were injected intramuscularly in the left hind leg with 50 μl of 20-fold diluted stock preparation of Moloney murine sarcoma virus. Starting 2-4 hours before virus infection,six animals received an orally administered test compound twice a day at 100 mg/kg(total dose) daily for five subsequent days. The control (placebo) group consisted of 14 animals. The experiment was evaluated as described in Example 35.

[9] = tested on: herpes viruses; conditions: racemic mixtures, prior art; cited from earlier work
[10] = 20 mg/kg single dose i.p., NMRI mice
[11] = 50 mg/kg single dose i.p., NMRI mice
[12] = 10 mg/kg single dose i.p., NMRI mice
[13] = 25 mg/kg single dose i.p., NMRI mice
[14] = 2 mg/kg single dose i.p., NMRI mice
[15] = 5 mg/kg single dose i.p., NMRI mice

Row | Compound | EC50 HIV-2 [1] | Mean day of tumor initiation [2, 10] | Mean day of tumor initiation [2, 11] | CC50 [3] | EC50 MSV [4] | EC50 HIV-1 [5] | MIC [6] | Mean day of tumor initiation [2, 12] | percentage of MSV-infected mice still alive at day 20 post infection ([2]; 50 mg/kg single dose i.p.) | percentage of MSV-infected mice still alive at day 20 post infection ([2]; 10 mg/kg single dose i.p.) | percentage of MSV-infected mice still alive at day 20 post infection ([2]; 20 mg/kg single dose i.p.) | percentage of MSV-infected mice without tumor at day 20 post infection ([2]; 20 mg/kg single dose i.p.) | percentage of MSV-infected mice without tumor at day 20 post infection ([2]; 50 mg/kg single dose i.p.) | also measured
1 | Nc1ncnc2c1ncn2C[C@H](CF)OCP(=O)(O)O [(R)-FPMPA, reference compound] | 54 µg/mL (≈ 177 µM) | 4.3 ± 0.48 days | 4.7 ± 0.67 days | >100 µg/mL | >100 µg/mL | 83 µg/mL (≈ 272 µM) | >100 µg/mL |  |  |  |  |  |  | 
2 | Nc1nc(N)c2ncn(C[C@H](CF)OCP(=O)(O)O)c2n1 [(R)-FPMPDAP, reference compound] | 1.5 µg/mL (≈ 4.68 µM) |  | 7.75 ± 1.3 days | >100 µg/mL | 1.7 µg/mL (≈ 5.31 µM) | 1.4 µg/mL (≈ 4.37 µM) | >100 µg/mL | 5.6 ± 1.0 days | (10%) |  |  |  |  | percentage of MSV-infected mice still alive at day 20 post infection ([2]; 25 mg/kg single dose i.p.): (15%); Mean day of tumor initiation [2, 13]: 7.7 ± 1.9 days
3 | C[C@H](Cn1cnc2c(N)ncnc21)OCP(=O)(O)O [(R)-PMPA, 9-(R)-(2-Phosphonomethoxypropyl)adenine] |  | 13.5 ± 3.5 days | >20 days | >100 µg/mL | 0.99 µg/mL (≈ 3.45 µM) | 1.7 µg/mL (≈ 5.92 µM) | >100 µg/mL | 12.9 ± 2.2 days | (100%) | (85%) | (100%) | (80%) | (100%) | Mean day of tumor initiation [2, 14]: 5.3 ± 1.1 days; percentage of MSV-infected mice still alive at day 20 post infection ([2]; 5 mg/kg single dose i.p.): (20%); percentage of MSV-infected mice without tumor at day 20 post infection ([2]; 5 mg/kg single dose i.p.): (10%); Mean day of tumor initiation [2, 15]: 7.11 ± 1.5 days; percentage of MSV-infected mice without tumor at day 20 post infection ([2]; 10 mg/kg single dose i.p.): (75%); Mean day of animal death [2, 10]: >20 days; protection against MSV-induced tumor development (in words) ([2]; single dose of 50 mg/kg i.p.): full protection; concentration markedly inhibitory to retrovirus replication ([7]; in vitro): 1 to 2 µg/mL
4 | C[C@H](Cn1cnc2c(N)nc(N)nc21)OCP(=O)(O)O [(R)-PMPDAP, 9-(R)-(2-Phosphonomethoxypropyl)-2,6-Diaminopurine] | 0.06 µg/mL (≈ 0.199 µM) | 11 days |  | >100 µg/mL | 0.14 µg/mL (≈ 0.463 µM) | 0.05 µg/mL (≈ 0.165 µM) | >100 µg/mL | 11.5 days |  | (90) % | (95) % | (95) % |  | selectivity index (ratio cytotoxic dose/antivirally active dose) ([1]; HIV-2): > 2000; Mean day of tumor initiation [2, 14]: 11 days; percentage of MSV-infected mice still alive at day 20 post infection ([2]; 5 mg/kg single dose i.p.): (90) %; percentage of MSV-infected mice without tumor at day 20 post infection ([2]; 5 mg/kg single dose i.p.): (70) %; Mean day of tumor initiation [2, 15]: 12.8 days; percentage of MSV-infected mice without tumor at day 20 post infection ([2]; 10 mg/kg single dose i.p.): (90) %; anti-MSV activity in vivo relative to (R)-PMPA ([2]; i.p., NMRI mice): five fold superior over (R)-PMPA; protection of the animals against MSV-induced tumor development ([2]; single dose of 10-20 mg/kg i.p.): 90-95; EC50 retrovirus replication ([7]; in vitro): 0.01 to 0.1 µg/mL; concentration non-toxic to the cells [3]: 100 µg/mL; Mean day of tumor initiation [8]: 7.5 ± 1.0^*) day; Number of mice developing tumor (%) [8]: 67%; selectivity index (ratio cytotoxic dose/antivirally active dose) ([5]; HIV-1): > 2000
5 | C[C@H](Cn1cnc2c(=O)[nH]c(N)nc21)OCP(=O)(O)O [(R)-PMPG, 9-(R)-(2-Phosphonomethoxypropyl)guanine] | 1.7 µg/mL (≈ 5.61 µM) |  |  | >100 µg/mL | 0.15 µg/mL (≈ 0.495 µM) | 1.8 µg/mL (≈ 5.94 µM) | 40 µg/mL (≈ 132 µM) |  |  |  |  |  |  | 
6 | Nc1ncnc2c1ncn2C[C@@H](CF)OCP(=O)(O)O [(S)-FPMPA] | 2.6 µg/mL (≈ 8.52 µM) | 11 ± 2.7 days | >20 days | >100 µg/mL | 1.5 µg/mL (≈ 4.91 µM) | 2.7 µg/mL (≈ 8.85 µM) | >100 µg/mL | 7.7 ± 2.4 days | (100%) | (40%) | (55%) | (31%) | (100%) | antiretroviral activity in vivo (in words) [2]: no marked antiretroviral activity in vivo
7 | Nc1nc(N)c2ncn(C[C@@H](CF)OCP(=O)(O)O)c2n1 [(S)-FPMPDAP] | 3.3 µg/mL (≈ 10.3 µM) |  | 11.0 ± 2.1 days | >100 µg/mL | 1.7 µg/mL (≈ 5.31 µM) | 4.8 µg/mL (≈ 15 µM) | >100 µg/mL | 8.5 ± 2.6 days | (67%) | (33%) |  |  | (17%) | Mean day of tumor initiation [2, 13]: 8.3 ± 1.8 days
8 | C[C@@H](Cn1cnc2c(N)ncnc21)OCP(=O)(O)O [(S)-PMPA, 9-(S)-(2-Phosphonomethoxypropyl)adenine] | 63 µg/mL (≈ 219 µM) | 4.5 ± 0.71 days | 5.8 ± 0.63 days | >100 µg/mL | 120 µg/mL (≈ 418 µM) | 78 µg/mL (≈ 272 µM) | >100 µg/mL | 4.7 ± 0.95 days |  |  |  |  |  | antiretroviral activity in vivo (in words) [2]: no marked antiretroviral activity in vivo; antiretroviral activity in vitro (in words) [7]: devoid of marked antiretroviral activity
9 | C[C@@H](Cn1cnc2c(N)nc(N)nc21)OCP(=O)(O)O [(S)-PMPDAP, 9-(S)-(2-Phosphonomethoxypropyl)-2.6-Diaminopurine] | 4.0 µg/mL (≈ 13.2 µM) |  |  | >100 µg/mL | 2.9 µg/mL (≈ 9.6 µM) | 2.0 µg/mL (≈ 6.62 µM) | >100 µg/mL |  |  |  |  |  |  | 
10 | C[C@@H](Cn1cnc2c(=O)[nH]c(N)nc21)OCP(=O)(O)O [(S)-PMPG, 9-(S)-(2-Phosphonomethoxypropyl)guanine] | 1.3 µg/mL (≈ 4.29 µM) |  |  | 45 µg/mL (≈ 148 µM) | 0.95 µg/mL (≈ 3.13 µM) | 1.2 µg/mL (≈ 3.96 µM) | 8 µg/mL (≈ 26.4 µM) |  |  |  |  |  |  | 
11 | Nc1ncnc2c1ncn2CCOCP(=O)(O)O [PMEA] |  | 10.6 ± 2.0 days | 9.0 days | 67 µg/mL (≈ 245 µM) |  |  | >100 µg/mL | 9.8 ± 1.9 days | (90%) | (43%) | (66%) | (44%) | (90%) | percentage of MSV-infected mice without tumor at day 20 post infection ([2]; 10 mg/kg single dose i.p.): (24%); Mean day of animal death [2, 12]: 14.2 ± 2.5 days; Mean day of animal death [2, 10]: 14.7 ± 1.8 days; Mean day of animal death [2, 11]: 16.0 days
12 | C[C@H](Cn1cnc2c(N)ncnc21)OCP(=O)(O)O [PMPA] |  |  |  |  |  |  |  |  |  |  |  |  |  | antiherpetic effect (in words) [9]: devoid of any appreciable antiherpetic effect
13 | CC(Cn1cnc2c(=O)[nH]c(N)nc21)OCP(=O)(O)O (stereo not drawn) [PMPG] |  |  |  |  |  |  |  |  |  |  |  |  |  | antiherpetic effect (in words) [9]: appeared due to its substantial cytotoxicity

Reference: patent US6479673B1, “Antiretroviral enantiomeric nucleotide analogs” (Institute of Organic Chemistry and Biochemistry of the …, priority 1992, dated 2002)
